Laboratory results from US11661410B2 (GLOBAL BLOOD THERAPEUTICS, INC., priority 2017, dated 2023).

Experiments:
[1] = target: mu (μ) opiate (OP3) receptor (Homo sapiens (Human), UniProt P35372); assay: biochemical; format: binding; conditions: read-out: Mu Opiate percent inhibition
[2] = target: muscarinic M2 receptor (Homo sapiens (Human), UniProt P08172); assay: Safety pharmacological profiling: muscarinic M2 receptor ligand binding; conditions: compound at 10 μM, in duplicate; ligand binding to cell membranes; read-out: Muscarinic M2 percent inhibition
muscarinic M2 receptor, sequence (P08172 whole entry): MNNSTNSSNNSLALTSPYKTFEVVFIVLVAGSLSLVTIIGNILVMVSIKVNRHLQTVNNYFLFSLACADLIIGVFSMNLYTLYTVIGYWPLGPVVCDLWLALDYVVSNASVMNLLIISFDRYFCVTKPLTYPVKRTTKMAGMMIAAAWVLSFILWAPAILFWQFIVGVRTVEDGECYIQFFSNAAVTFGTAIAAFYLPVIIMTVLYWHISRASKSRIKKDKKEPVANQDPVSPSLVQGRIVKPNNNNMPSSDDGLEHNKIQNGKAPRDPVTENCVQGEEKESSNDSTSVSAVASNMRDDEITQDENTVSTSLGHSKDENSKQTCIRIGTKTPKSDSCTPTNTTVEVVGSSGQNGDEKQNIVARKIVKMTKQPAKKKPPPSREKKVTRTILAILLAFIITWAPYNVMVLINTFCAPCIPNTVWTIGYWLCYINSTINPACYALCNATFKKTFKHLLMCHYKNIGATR

`COc1cc2nc3c(c(NCC4CNC4)c2cc1OC)CCC3` [drawing 593] was tested, and the inhibition at 10 µM [1] was 12%.

`COc1cc2nc3c(c(N[C@@H]4CCCCNC4)c2cc1OC)CCC3` [drawing 597] showed an inhibition at 10 µM [1] of 73%.

For `COc1cc2nc3c(c(N[C@@H]4CCCNC4)c2cc1OC)CCC3` [drawing 586], the inhibition at 10 µM [2] was 76%.

With `COc1cc2nc3c(c(NC4CCNCC4)c2cc1OC)CCC3` [drawing 587] the inhibition at 10 µM [2] was 62%.

`COc1cc2nc3c(c(NCC4CNC4)c2cc1OC)CCC3` [drawing 585] showed an inhibition at 10 µM [2] of 65%.

In the case of `CCNc1c2c(nc3cc(OCCCN4CCCC4)c(OC)cc13)CCC2` [drawing 583], the inhibition at 10 µM [2] is reported as 62%.

Work on `COc1cc2nc3c(c(N[C@H]4CNC[C@@H](C)C4)c2cc1OC)CCC3` [drawing 596] yielded an inhibition at 10 µM [1] of 23%.

In the case of `COc1cc2nc3c(c(N[C@@H]4CCCCNC4)c2cc1OC)CCC3` [drawing 589], the inhibition at 10 µM [2] is reported as 80%.

`COc1cc2nc3c(c(NC4CCNCC4)c2cc1OC)CCC3` [drawing 595] showed an inhibition at 10 µM [1] of 48%.

`COc1cc2c(NC(C)C)c3c(nc2cc1OCCCN1CCCC1)CCC3` [drawing 590] was tested, and the inhibition at 10 µM [1] was 92%.

`CCNc1c2c(nc3cc(OCCCN4CCCC4)c(OC)cc13)CCC2` [drawing 591] showed an inhibition at 10 µM [1] of 92%.

Compound `COc1cc2c(NC(C)C)c3c(nc2cc1OCCCN1CCCC1)CCC3` [drawing 582] has an inhibition at 10 µM [2] of 51%.

`COc1cc2nc3c(c(NC4CCN(C(C)C)CC4)c2cc1OC)CCC3` showed an inhibition at 10 µM [2] of 78%.

Work on `COc1cc2nc3c(c(N[C@@H]4CCCNC4)c2cc1OC)CCC3` [drawing 594] yielded an inhibition at 10 µM [1] of 44%.
